18 molecules from the supplement of paper PMC7840683 can be followed below.

The assay relates to HepaRG. The experiment in a line: LDH release cytotoxicity, % of total lysis control; higher = more cytotoxic. Conditions: 48 h. The method, boiled down:
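On collagen I-coated 96-well plates, single-lot HepaRG cells were exposed for 48 h, in duplicate, to eight-point half-log series of test chemicals beginning at 100 µM. The exposure medium was serum-free induction medium with 0.5% DMSO, and total lysis wells got 0.1% Triton X. Resorufin fluorescence from the CytoTox-ONE reaction, read on a Tecan Safire, reported LDH in 50 µL of spent medium. Percent cytotoxicity came from normalization to on-plate vehicle and total lysis controls, averaged over the duplicates.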
Background: Release of lactate dehydrogenase indicates damage to the cell membrane.

Counter-ions that a name gives are not always drawn. ± gives the standard deviation of the averaged measurements.

With `ClC1=C(Cl)C(Cl)(Cl)C(Cl)=C1Cl` [Hexachlorocyclopentadiene], the LDH release cytotoxicity is -1.11 ± 2.6% (0.031623 µM); -0.0238 ± 0.36% (0.1 µM); -1.49 ± 0.55% (0.316228 µM); -1.14 ± 0.92% (1 µM); -0.83 ± 0.046% (3.16228 µM); -0.988 ± 0.15% (10 µM). In addition, the LDH release cytotoxicity is -0.0453 ± 0.82% (31.6228 µM) and 0.368 ± 1.3% (100 µM).

In the case of `CCCCOC(=O)c1ccccc1` [Butyl benzoate], the LDH release cytotoxicity is -1.31 ± 0.5% (0.03162 µM); -1.78 ± 0.16% (0.1 µM); -2.41 ± 0.59% (0.3162278 µM); -1.63 ± 0.22% (1 µM); -1.96 ± 0.76% (3.16228 µM); -1.46 ± 0.092% (10 µM). Moreover, the LDH release cytotoxicity (31.6228 µM) is -1.03 ± 0.64% and the LDH release cytotoxicity (100 µM) was found to be 0.0897 ± 0.95%.

`Oc1ccc(O)cc1` [Hydroquinone]: the LDH release cytotoxicity was 0.852 ± 2.2% (0.03162 µM); -0.606 ± 1% (0.1 µM); -1.09 ± 0.16% (0.3162278 µM); -0.745 ± 0.076% (1 µM); -0.483 ± 0.15% (3.16228 µM); -0.0561 ± 0.24% (10 µM). Moreover, the LDH release cytotoxicity was -0.947 ± 0.53% (31.6228 µM) and -1.615 ± 0.013% (100 µM).

Consider `O=C(Nc1ccc([N+](=O)[O-])cc1Cl)c1cc(Cl)ccc1O` [5-Chloro-N-(2-chloro-4-nitrophenyl)-2-hydroxybenzamide], for which the LDH release cytotoxicity reads like this: (0.03162 µM) 1.65 ± 0.17%; (0.1 µM) -0.562 ± 0.35%; (0.3162278 µM) -0.79 ± 0.51%; (1 µM) -0.00174 ± 0.41%; (3.16228 µM) 0.224 ± 0.77%; (10 µM) 1.07 ± 0.19%. In addition, the LDH release cytotoxicity is 1.7 ± 0.41% (31.6228 µM) and 4.52 ± 0.71% (100 µM).

With `NCCO` [Ethanolamine], the LDH release cytotoxicity is -2.14 ± 1.3% (0.03162 µM); -2 ± 1.6% (0.1 µM); -1.29 ± 0.49% (0.3162278 µM); -1.55 ± 0.046% (1 µM); -0.642 ± 0.088% (3.16228 µM); -0.777 ± 0.073% (10 µM). Further, the LDH release cytotoxicity was -0.101 ± 0.76% (31.6228 µM) and 0.0783 ± 0.76% (100 µM).

In the case of `O=C(O)COc1ccc(Cl)cc1Cl` [2,4-Dichlorophenoxyacetic acid], the LDH release cytotoxicity is -2.81 ± 0.75% (0.03162 µM); -3.06 ± 0.11% (0.1 µM); -3.35 ± 0.81% (0.3162278 µM); -3.21 ± 0.55% (1 µM); -3.24 ± 0.42% (3.16228 µM); -3.79 ± 0.69% (10 µM). For the same molecule, the LDH release cytotoxicity reads like this: (31.6228 µM) 48.3 ± 0.8%; (100 µM) 69.9 ± 2%.

In the case of `NC1CCCCC1` [Cyclohexylamine], the LDH release cytotoxicity runs as follows: (0.03162 µM) -1.45 ± 0.53%; (0.1 µM) -1.58 ± 0.49%; (0.3162278 µM) -1.84 ± 0.28%; (1 µM) -2.2 ± 0.96%; (3.16228 µM) -2.32 ± 0.31%; (10 µM) -1.74 ± 0.66%. Besides, the LDH release cytotoxicity by setting is: (31.6228 µM) -0.752 ± 0.11%; (100 µM) 0.0324 ± 0.072%.

On to `CC12CCC(=O)C=C1CCC1C2C(O)CC2(C)C(C(=O)CO)CCC12` (centres undefined) [Corticosterone], for which the LDH release cytotoxicity by setting is: (0.03162 µM) -1.65 ± 0.13%; (0.1 µM) -0.683 ± 1.9%; (0.3162278 µM) 0.128 ± 1.4%; (1 µM) -1.19 ± 0.62%; (3.16228 µM) -0.76 ± 0.84%; (10 µM) -0.609 ± 0.51%. Also, the LDH release cytotoxicity is, setting by setting: (31.6228 µM) -0.274 ± 0.58%; (100 µM) 1.02 ± 0.92%.

With `C#CC(C)(C)NC(=O)c1cc(Cl)cc(Cl)c1` [Propyzamide], the LDH release cytotoxicity runs as follows: (0.03162 µM) -1.48 ± 1.2%; (0.1 µM) -0.106 ± 0.45%; (0.3162278 µM) -1.18 ± 0.17%; (1 µM) -0.534 ± 0.42%; (3.16228 µM) -1.13 ± 0.49%; (10 µM) -0.249 ± 0.6%. Besides, the LDH release cytotoxicity runs as follows: (31.6228 µM) -0.378 ± 0.49%; (100 µM) 1.49 ± 0.29%.

For the molecule `O=P(OC(CCl)CCl)(OC(CCl)CCl)OC(CCl)CCl` [Tris(1,3-dichloro-2-propyl) phosphate], the LDH release cytotoxicity (0.03162 µM) is 0.268 ± 1.8%; the LDH release cytotoxicity (0.1 µM) was -1.46 ± 0.26%; the LDH release cytotoxicity (0.3162278 µM) is -0.407 ± 0.3%; the LDH release cytotoxicity (1 µM) is -1.12 ± 0.76%; the LDH release cytotoxicity (3.16228 µM) is -0.951 ± 0.83%; the LDH release cytotoxicity (10 µM) was -0.799 ± 0.15%. Further, the LDH release cytotoxicity runs as follows: (31.6228 µM) 0.114 ± 0.25%; (100 µM) 9.87 ± 0.53%.

Regarding `CCC1OC(=O)C(C)C(OC2CC(C)(OC)C(O)C(C)O2)C(C)C(OC2OC(C)CC(N(C)C)C2O)C(C)(O)CC(C)C(=O)C(C)C(O)C1(C)O` (centres undefined) [Erythromycin], the LDH release cytotoxicity by setting is: (0.02356 µM) -1.71 ± 1.6%; (0.0745 µM) -2.96 ± 1%; (0.23559 µM) -1.94 ± 1%; (0.745 µM) -3.63 ± 0.23%; (2.3559 µM) -3.02 ± 1.1%; (7.45 µM) -2.85 ± 0.59%. Further, the LDH release cytotoxicity was -1.9 ± 0.73% (23.559 µM) and -0.102 ± 1.1% (74.5 µM).

Turning to `C#CCOC(=O)C(C)Oc1ccc(Oc2ncc(Cl)cc2F)cc1` (centres undefined) [Clodinafop-propargyl], the LDH release cytotoxicity by setting is: (0.03162 µM) -1.35 ± 0.68%; (0.1 µM) -1.3 ± 0.75%; (0.3162278 µM) -1.68 ± 0.23%; (1 µM) -0.544 ± 0.27%; (3.16228 µM) -1.29 ± 0.021%; (10 µM) -0.851 ± 0.15%. Moreover, the LDH release cytotoxicity by setting is: (31.6228 µM) -0.0728 ± 0.36%; (100 µM) 0.27 ± 0.25%.

In the case of `CSC(C)(C)CN=O` [Aldicarb oxime], the LDH release cytotoxicity (0.03162 µM) was -1.16 ± 1.1%; the LDH release cytotoxicity (0.1 µM) was -1.16 ± 0.73%; the LDH release cytotoxicity (0.3162278 µM) was -0.361 ± 1.2%; the LDH release cytotoxicity (1 µM) amounted to 0.251 ± 0.83%; the LDH release cytotoxicity (3.16228 µM) is -0.674 ± 0.8%; the LDH release cytotoxicity (10 µM) was determined as 0.43 ± 0.56%. The LDH release cytotoxicity by setting is: (31.6228 µM) 0.225 ± 0.043%; (100 µM) 0.822 ± 0.091%.

For `CN(CC(CC[N+]12CCC(C3CCCCC3)(CC1)CC2)c1ccc(Cl)c(Cl)c1)C(=O)c1cc(C(F)(F)F)cc(C(F)(F)F)c1` (centres undefined), the LDH release cytotoxicity is, setting by setting: (0.03162 µM) -0.117 ± 0.43%; (0.1 µM) -0.956 ± 0.68%; (0.3162278 µM) -1.24 ± 0.014%; (1 µM) -1.39 ± 0.29%; (3.16228 µM) -1.45 ± 0.36%; (10 µM) 1.28 ± 0.3%. In addition, the LDH release cytotoxicity runs as follows: (31.6228 µM) 57.3 ± 4%; (100 µM) 84.4 ± 3.8%.

As to `CC(C)(C)c1cc(C=C2SC(=N)NC2=O)cc(C(C)(C)C)c1O` [Darbufelone mesylate], the LDH release cytotoxicity (0.03162 µM) is -2.49 ± 0.67%; the LDH release cytotoxicity (0.1 µM) was -3.41 ± 0.28%; the LDH release cytotoxicity (0.3162278 µM) is -3.09 ± 0.45%; the LDH release cytotoxicity (1 µM) was -3.16 ± 0.65%; the LDH release cytotoxicity (3.16228 µM) was -3.23 ± 0.27%; the LDH release cytotoxicity (10 µM) was -3.27 ± 0.089%. The LDH release cytotoxicity is, setting by setting: (31.6228 µM) -2.49 ± 1%; (100 µM) -1.56 ± 0.092%.

Consider `O=C(O)CC(O)C(=O)O` (centres undefined) [Malic acid], for which the LDH release cytotoxicity is, setting by setting: (0.03162 µM) -1.2 ± 0.52%; (0.1 µM) -1.77 ± 0.018%; (0.3162278 µM) -1.39 ± 0.22%; (1 µM) -1.28 ± 1.3%; (3.16228 µM) -1.27 ± 0.26%; (10 µM) -1.41 ± 0.57%. The LDH release cytotoxicity is, setting by setting: (31.6228 µM) -1.33 ± 0.1%; (100 µM) 0.326 ± 0.19%.

Take `OCCCl` [2-Chloroethanol]: the LDH release cytotoxicity is -1.15 ± 0.41% (0.03162 µM); -1.03 ± 0.86% (0.1 µM); -1.59 ± 0.33% (0.3162278 µM); -1.39 ± 0.77% (1 µM); -1.15 ± 0.39% (3.16228 µM); -0.492 ± 0.48% (10 µM). For the same molecule, the LDH release cytotoxicity is -0.514 ± 0.24% (31.6228 µM) and 4.05 ± 0.92% (100 µM).

`COc1ccc(C(=CC(=O)N2CCOCC2)c2ccc(Cl)cc2)cc1OC` [Dimethomorph]: the LDH release cytotoxicity (0.03162 µM) is -0.689 ± 0.5%; the LDH release cytotoxicity (0.1 µM) is -1.52 ± 0.24%; the LDH release cytotoxicity (0.3162278 µM) is -1.7 ± 0.055%; the LDH release cytotoxicity (1 µM) is -1.1 ± 0.47%; the LDH release cytotoxicity (3.16228 µM) was -0.768 ± 0.71%; the LDH release cytotoxicity (10 µM) is -0.565 ± 0.54%. In addition, the LDH release cytotoxicity by setting is: (31.6228 µM) -0.618 ± 0.33%; (100 µM) 1.09 ± 0.43%.
